Data: publication PMC12736018, “Stereoselective Cytotoxicity of Enantiopure 3,3-Dichloro-γ-lactams: Correlating In Vitro Activity with In Vivo Tolerability” (Molecules, 2025)
In brackets after ≈: the same amount, converted by molar mass.

Key:
[1] = test system: 3T3 cells; test: NRU cell viability assay, 3T3; format: cell-based; conditions: Mus musculus, NIH3T3; 3T3, NRU, 24 h
Method: (§1) The murine Swiss albino fibroblast (3T3), the immortal human keratinocyte (HaCaT), the squamous cell carcinoma (A431), the human epithelial carcinoma (HeLa) and the human breast adenocarcinoma (MCF-7) cell lines were sourced from Celltec UB (Barcelona, Spain). All cells were maintained and grown in DMEM medium (4.5 g/L glucose) supplemented with 10% (v/v) FBS, 2 mM L-glutamine, 100 U/mL penicillin and 100 μg/mL streptomycin at 37 °C, 5% CO2. Cells were routinely cultured in 75 cm^2 culture flasks and were trypsinized using trypsin-EDTA when the cells reached approximately 80%. Cell concentration in the resulting suspension was assessed using the trypan blue assay, which enables direct discrimination between viable (unstained) and non-viable (blue) cells.
(§2) T3 and HaCaT cells (1 × 10^5 cells/mL), along with A431, HeLa, and MCF-7 cells (5 × 10^4 cells/mL), were cultured at defined seeding densities in the 60 central wells of a 96-well plate. Cells were first incubated for 24 h under standard incubator conditions (5% CO2, 37 °C). After this period, the culture medium was removed, and the cells were incubated for an additional 24 h with their corresponding compound solutions (1 mg/mL) previously diluted in a minimum amount of DMF (dimethylformamide) and then in DMEM medium supplemented with 5% FBS (100 µL) at the required concentration range (20 to 250 µg/mL). Cell viability following exposure to the lactam derivatives was evaluated using two complementary assays: NRU and MTT.
(§3) The neutral red uptake (NRU) assay is based on the accumulation of dye in the lysosomes of viable cells. After the cells were incubated for 24 h with the corresponding systems, the medium was removed, and the solutions were incubated with the NR dye (Sigma-Aldrich, St. Louis, MO, USA) solution (50 µg/mL) dissolved in the medium, without FBS and without phenol red (Lonza, Verviers, Belgium), for 3 h. Cells were then washed with sterile PBS, followed by the addition of 100 µL of a solution containing 50% absolute ethanol and 1% acetic acid in distilled water to extract the dye. To promote the total dissolution of the dye, plates were placed in a microtiter-plate shaker for 5 min at room temperature. The absorbance of the resulting solutions was measured at 550 nm (Bio-Rad 550 microplate reader, Bio-Rad California, Hercules, CA, USA). Finally, the effect of each treatment was calculated as the percentage of dye uptake by viable cells relative to the control cells (cells without any treatment). […]

[2] = test system: HeLa cells; test: NRU cell viability assay, HeLa; format: cell-based, human; conditions: Homo sapiens, 24 h
Method: as §1, §2
(§4) The neutral red uptake (NRU) assay is based on the accumulation of dye in the lysosomes of viable cells. After the cells were incubated for 24 h with the corresponding systems, the medium was removed, and the solutions were incubated with the NR dye (Sigma-Aldrich, St. Louis, MO, USA) solution (50 µg/mL) dissolved in the medium, without FBS and without phenol red (Lonza, Verviers, Belgium), for 3 h. Cells were then washed with sterile PBS, followed by the addition of 100 µL of a solution containing 50% absolute ethanol and 1% acetic acid in distilled water to extract the dye. To promote the total dissolution of the dye, plates were placed in a microtiter-plate shaker for 5 min at room temperature. The absorbance of the resulting solutions was measured at 550 nm (Bio-Rad 550 microplate reader, Bio-Rad California, Hercules, CA, USA). Finally, the effect of each treatment was calculated as the percentage of dye uptake by viable cells relative to the control cells (cells without any treatment). Finally, the effect of each treatment was calculated as the percentage of dye retained by viable cells compared with untreated control cells.
(§5) The half-maximal inhibitory concentration (IC50) values for the different formulations, across cell lines and experimental endpoints, were obtained by fitting the concentration-dependent viability curves. […] These findings reflect the very low cytotoxicity of the compounds toward these cell lines.

[3] = test system: A431 cells; test: MTT cell viability assay, A431; format: cell-based; conditions: Homo sapiens, A-431, 24 h
Method: as §1, §2
(§6) Only living cells can reduce the yellow tetrazolium salt 3-(4,5-dimethyl-2-thiazolyl)-2,5-diphenyltetrazolium bromide (MTT) to insoluble purple formazan crystals. After a 24 h incubation of the cells with their corresponding NPs, the medium was removed and 100 µL of MTT (Sigma-Aldrich, St. Louis, MO, USA) in PBS (5 mg/mL) diluted 1:10 in culture medium without phenol red and without FBS (Lonza, Verviers, Belgium) was added to the cells. After 3 h of incubation, the medium was removed. Thereafter, 100 µL of DMSO (Sigma-Aldrich, St. Louis, MO, USA) was added to each well to dissolve the purple formazan crystals. Agitation and absorbance measurements of the extracted solution were carried out under the same conditions described for the NRU assay. The effect of each treatment was then expressed as the percentage of tetrazolium salt reduction by viable cells relative to untreated controls.
as §5

[4] = test system: HaCaT cells; test: MTT cell viability assay, HaCaT; format: cell-based; conditions: Homo sapiens, 24 h
Method: as §1, §2, §6, §5

[5] = test system: HeLa cells; test: MTT cell viability assay, HeLa; format: cell-based; conditions: Homo sapiens, 24 h
Method: as §1, §2, §6, §5

[6] = test system: MCF-7 cells; test: NRU cell viability assay, MCF-7; format: cell-based, human; conditions: Homo sapiens, MCF7; MCF-7, NRU, 24 h
Method: as §1, §2, §4, §5

[7] = test system: HaCaT cells; test: NRU cell viability assay, HaCaT; format: cell-based; conditions: Homo sapiens, 24 h
Method: as §1, §2, §3

[8] = test system: zebrafish embryos; test: Touch-evoked response (TER) test; format: in vivo; conditions: 72 hpf, after 2 h washout
Method: Adult zebrafish, both male and female, were procured from a commercial supplier (Pisciber, Barcelona, Spain) and housed in a closed flow-through system with standardized dilution water, as specified in ISO 7346-1 [16] (2 mM CaCl2·2H2O; 0.5 mM MgSO4·7H2O; 0.75 mM NaHCO3; 0.07 mM KCl). The fish were maintained at a temperature of 26 ± 1 °C on a 14 h light and 10 h dark cycle and were daily fed in the morning with Artemia salina, and with commercial flake food in the afternoon (SDS400, Special Diet Services, Dietex, France). The day before eggs were needed, males and females were placed in a breeding tank with plants at a 2:1 male-to-female ratio. The following morning, eggs were collected 30 min after the lights were turned on. […]
At 72 hpf, test solutions were replaced with 0.3× Danieau’s solution without the chemical and incubated at 27 °C ± 1 °C for 2 h. […] In brief, videos were recorded using a Casio Exilim EX-ZR200 video camera (Tokyo, Japan) and the distance swam by zebrafish embryos was measured after three mechanical stimuli, applied to the tail with a forceps tip (Fine Science Tools, Dumont #5, Foster City, CA, USA) at 10 s intervals. […] Six larvae per concentration group were evaluated in at least three independent experiments.
Statistical analysis was performed using GraphPad Prism v.10.0.2. TER test was analyzed using one-way ANOVA and the post-hoc multiple-comparison Dunnett test. […]

Compound	IC50 [1] [µg/mL]	IC50 [2] [µg/mL]	IC50 [3] [µg/mL]	IC50 [4] [µg/mL]	IC50 [5] [µg/mL]	IC50 [6] [µg/mL]	IC50 [7] [µg/mL]	concentration from which a statistically significant adverse effect was observed in the TER [8] [ng/mL]
C[C@@H]1CN([C@@H](C)c2ccccc2)C(=O)C1(Cl)Cl [Compound 3, (R)-3,3-dichloro-4-methyl-1-((S)-1-phenylethyl)pyrrolidin-2-one]	65 (≈ 239 µM)	160 (≈ 588 µM)	56 (≈ 206 µM)	122 (≈ 450 µM)	184 (≈ 675 µM)	60 (≈ 220 µM)	> 250	≥ 7800
C[C@H](c1ccccc1)N1C[C@H](C)C(Cl)(Cl)C1=O [Compound 4]	173 (≈ 634 µM)	77.5 (≈ 285 µM)	164 (≈ 604 µM)	57.3 (≈ 210 µM)	94.3 (≈ 346 µM)	> 250	> 250	≥ 7800
